How the values were obtained:
NCI-H226 cells [1] = assay: Proliferation and cell viability, CellTiter-Glo 2.0 (CTG) assay; assay type: cell-based; details: H226-responder cell line, 144 hrs
Experimental: (§1) Cell proliferation of a TEAD dependent NF2-null mesothelioma cell line, NCI-H226, and a TEAD-non-dependent mesothelioma cell line, NCI-H28 was assayed using two different protocols: • a) CellTiter-Glo 2.0 (Promega #G9243). The effect of the TEAD inhibitors disclosed herein on cell proliferation was determined in TEAD1-genetically dependent cell line NCI-H226 (responder cell line) and TEAD-independent cell lines (NCI-H23, HEK293T), as non-responder, negative control. Cells were seeded in 96-well plates (Thermo Scientific #167008) in growth media (RPMI-1640, Gibco #61870-010) for NCI-H226 and NCI-H23 or DMEM (Gibco #31966-021, HEK293T) with 10% Heat Inactivated Fetal Bovine Serum (Gibco 10500-064) at 800 (NCI-H226 and HEK-293T) or 2000 (NCI-H23) cells per well at 37° C., 5% CO2, humidified incubator; 24 hours later, fresh growth media containing test compound or DMSO vehicle was added and incubated with the cells for 144 hrs. TEAD inhibitor stocks were made at a 1000× fold excess in DMSO, and a dose response test compound dose range of 10,000 to 0.1 nM was used. Each treatment was carried out in triplicate. After 144 hrs of treatment, relative cell viability numbers were determined using the CellTiter-Glo 2.0 assay following the manufacturer's instructions. Test plates and CellTiter-Glo 2.0 reagent were allowed to equilibrate to room temperature. CellTiter-Glo 2.0 reagent was added at 1:1 reagent to media ratio to the 96-well cell plates, plates were placed on a plate shaker for 2 minutes and then incubated at room temperature for a further 10 minutes to allow complete cell lysis to occur. The mix was then transferred to white, 96-well luminometer assay plates (Greiner Bio One #655075). Luminescence was quantified using a CLARIOStar Plus multi-mode plate reader (BMG Labtech) in luminescence detection mode with the recommended settings (ultra-Glo pre-set: emission 545-50 nm with autofocus and enhanced dynamic range on). Relative cell density was expressed as a function of inhibitor concentration, with respect to DMSO-only control wells. Data where plotted using GraphPad Prism and IC50 values for the biological effect were calculated using the EC50 non-linear fit function using a sigmoidal, 4-parameter logistic, least squares fit with no constraints. • b) Cell Titer One (Promega, #G3582). The effect of the TEAD inhibitors disclosed herein on cell proliferation was also determined using the Promega Substrate Cell Titer Aqueous One Solution Reagent. The TEAD inhibitors were evaluated for the effects on cell proliferation responder (H226) and non-responder negative control cancer cell lines (CAMA1, H28), as well as non-transformed normal human cells (HUVEC, NHDF). Dissociated cells were resuspend in media (depending on cell line, either in DMEM, RPMI, or EMEM all with 10% FBS, with gentamicin as an antibiotic). Cells were seeded at 100 μL/well at 750 cells per well in 96-well plates and allowed to settle and attach. After an incubation of 24 hrs (37° C., 5% CO2, humidified incubator), 100 μL of test compound-containing media was added. A dilution series of 2000× concentrated stock of test compounds was prepared in DMSO, for final concentrations from 0.1 to 10,000 nM. After addition of test compound-containing media, cells were incubated for 6 days at 37° C., 5% CO2, humidified incubators). To measure cell density, 20 μL of Promega Substrate Cell Titer 96 Aqueous One Solution Reagent (Promega, #G3582) to each well was added according to the manufacturer's instructions. Plates were incubated at 37° C. for usually 3-8 hrs, to reach in the control cells (without compound) an OD of 1.5 at 490 nm. The OD was measured using Vmax [Molecular Devices] spectrophotometer plate reader. Media only-wells were used as background controls and cell densities normalized to DMSO vehicle control. ECs were taken as the concentration achieving 50% of maximal growth inhibition.

NCI-H226 cells [2] = assay: Proliferation, Cell Titer One assay; assay type: cell-based; details: 6 days
Experimental: as §1

NCI-H28 cells = assay: Proliferation, Cell Titer One assay; assay type: cell-based; details: 6 days
Experimental: as §1

NCI-H23 cells = assay: Proliferation and cell viability, CellTiter-Glo 2.0 (CTG) assay; assay type: cell-based; details: 144 hrs
Experimental: as §1

TEAD1 = TEAD1 (Homo sapiens, UniProt P28347); details: cited from earlier work
TEAD1, sequence (P28347 whole entry): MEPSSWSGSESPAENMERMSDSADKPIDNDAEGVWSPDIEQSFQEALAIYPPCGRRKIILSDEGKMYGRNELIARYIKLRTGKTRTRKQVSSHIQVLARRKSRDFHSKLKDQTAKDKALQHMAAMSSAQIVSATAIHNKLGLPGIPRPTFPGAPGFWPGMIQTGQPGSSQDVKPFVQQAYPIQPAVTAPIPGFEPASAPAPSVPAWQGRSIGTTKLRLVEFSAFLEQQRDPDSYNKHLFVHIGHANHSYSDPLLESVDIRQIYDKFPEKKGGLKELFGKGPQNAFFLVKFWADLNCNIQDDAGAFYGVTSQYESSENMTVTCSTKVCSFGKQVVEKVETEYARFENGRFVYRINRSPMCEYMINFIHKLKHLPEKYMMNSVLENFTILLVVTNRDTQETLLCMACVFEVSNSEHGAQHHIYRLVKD

TEAD2 = TEAD2 (Homo sapiens, UniProt Q15562); details: thermal shift, reported data of Tang and Post; cited from earlier work
TEAD2, sequence (Q15562 whole entry): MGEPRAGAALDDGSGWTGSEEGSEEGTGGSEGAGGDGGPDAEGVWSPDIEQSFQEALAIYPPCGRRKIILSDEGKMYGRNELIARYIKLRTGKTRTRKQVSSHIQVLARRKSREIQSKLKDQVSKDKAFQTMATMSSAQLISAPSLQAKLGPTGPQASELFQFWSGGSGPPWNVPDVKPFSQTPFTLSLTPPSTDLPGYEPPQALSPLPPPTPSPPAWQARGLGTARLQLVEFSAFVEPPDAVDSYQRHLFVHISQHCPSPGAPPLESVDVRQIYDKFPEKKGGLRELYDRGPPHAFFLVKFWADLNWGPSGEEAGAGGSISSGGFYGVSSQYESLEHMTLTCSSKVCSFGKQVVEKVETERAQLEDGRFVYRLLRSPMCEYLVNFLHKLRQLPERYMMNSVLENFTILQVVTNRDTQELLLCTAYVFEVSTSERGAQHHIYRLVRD

TEAD3 = TEAD3 (Homo sapiens, UniProt Q99594); details: thermal shift, reported data of Tang and Post; cited from earlier work
TEAD3, sequence (Q99594 whole entry): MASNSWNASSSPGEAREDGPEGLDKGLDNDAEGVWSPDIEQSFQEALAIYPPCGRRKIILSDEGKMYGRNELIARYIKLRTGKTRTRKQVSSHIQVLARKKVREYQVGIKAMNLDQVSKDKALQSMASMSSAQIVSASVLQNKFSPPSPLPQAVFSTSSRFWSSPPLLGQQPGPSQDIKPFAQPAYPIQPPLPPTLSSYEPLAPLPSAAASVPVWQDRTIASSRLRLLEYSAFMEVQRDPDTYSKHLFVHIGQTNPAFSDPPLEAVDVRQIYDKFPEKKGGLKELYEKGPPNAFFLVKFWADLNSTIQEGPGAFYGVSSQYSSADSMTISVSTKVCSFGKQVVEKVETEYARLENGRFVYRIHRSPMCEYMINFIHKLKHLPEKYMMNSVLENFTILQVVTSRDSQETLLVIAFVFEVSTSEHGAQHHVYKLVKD

TEAD4 = TEAD4 (Homo sapiens, UniProt Q15561); details: cited from earlier work
TEAD4, sequence (Q15561 whole entry): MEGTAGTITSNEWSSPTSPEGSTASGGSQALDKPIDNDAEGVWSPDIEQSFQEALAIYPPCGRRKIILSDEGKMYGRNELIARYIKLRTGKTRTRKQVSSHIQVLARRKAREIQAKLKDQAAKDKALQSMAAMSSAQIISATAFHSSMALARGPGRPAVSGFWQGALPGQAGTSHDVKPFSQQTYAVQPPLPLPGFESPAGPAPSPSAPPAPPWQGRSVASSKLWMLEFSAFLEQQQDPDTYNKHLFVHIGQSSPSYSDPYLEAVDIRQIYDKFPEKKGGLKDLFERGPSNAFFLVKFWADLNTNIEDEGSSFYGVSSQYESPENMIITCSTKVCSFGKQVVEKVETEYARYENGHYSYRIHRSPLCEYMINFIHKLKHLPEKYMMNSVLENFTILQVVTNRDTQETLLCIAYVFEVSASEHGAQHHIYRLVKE

[3] = test system: TEAD/YAP promoter element in MCF7-Luc cells; assay: Cell-based TEAD-promoter transcriptional activity assay (MCF-7 TEAD luciferase); details: Homo sapiens, MCF7; MCF-7 TEAD luciferase assay, 24 hrs
Description: Luciferase based TEAD-transcriptional cell-based reporter assay: To measure the effect of the TEAD inhibitors disclosed herein on TEAD transcriptional activity in cell-based systems, we employed a stable MCF7 cell line expressing luciferase under a consensus synthetic TEAD/YAP promoter element (MCF7-Luc, BPS Bioscience, Catalog #60618). This MCF7-TEAD-Luc cell line has been extensively validated with both genetic and pharmacological intervention, showing inhibition of luciferase expression and luminescence in response to ablation of the TEAD/YAP pathway. MCF7-Luc cells were plated at 10,000 cells per well in white 384-well plates and settled by a quick spin. The media was MEM (Gibco) supplemented with 10% fetal bovine serum (ExCell), selenium-transferrin-insulin mix (Gibco), 1× non-essential amino acids (Gibco) and sodium pyruvate (Gibco). Cells were allowed to attach and grow overnight (37° C., 5% CO2 in humidified incubator), and test compounds were added the next day. Compounds were dissolved at 1000× fold excess in DMSO and made into 2-fold serial dilution, and added to media at 30 μL of media per well. A DMSO-only well serves a vehicle control. The highest concentration of drug in media was 1,000 nM. Positive control compounds include K975 (pan-TEAD inhibitor) and negative control (Actinomycin). Cells were incubated for 24 hrs with test compounds and positive controls, after which time, the luminescence was measured by the One-Glo luciferase kit (Promega). 30 μL of One-Glo reagent was added to each well and shaken for 8 minutes to lyse the cells. The plates were centrifugated at 1000 RPM for 1 minute to settle all liquid in the well and eliminate bubbles. Luminescence was quantified using an ENVision plate reader (Perkin Elmer). Percent inhibition of luminescence by test compound was expressed as a function of test compound concentration, with the no-test compound DMSO only wells serving as baseline. EC50 values for each compound were calculated with a non-linear asymptotic line fit.

[4] = Homo sapiens, NCI-H23, H23-non-responder cell line
[5] = thermal shift assays of Tang and Post
[6] = thermal shift, reported data of Tang and Post

SMILES	IC50 (NCI-H226 cells [1]; Homo sapiens, NCI-H226, 144 h) [µM]	IC50 (NCI-H226 cells [2]; Homo sapiens, NCI-H226, 144 h) [µM]	IC50 (NCI-H28 cells; Homo sapiens, NCI-H28, 144 h) [µM]	IC50 (NCI-H23 cells; [4]) [µM]	IC50 (NCI-H226 cells [1]) [µM]	IC50 (NCI-H23 cells; H23-non-responder cell line) [µM]	IC50 (NCI-H226 cells [2]) [µM]	IC50 (NCI-H28 cells) [µM]	also measured
CS(=O)(=O)c1cnc2c(C3=CCC(C(F)(F)F)CC3)cccc2c1 (centres unmarked) [Compound 16, 3-(methylsulfonyl)-8-(4-(trifluoromethyl)cyclohex-1-en-1-yl)quinoline]	< 0.2	< 0.2	> 1	–	–	–	–	–	–
COC[C@H](C)NC(=O)c1cnc2c(C3=CCC(C(F)(F)F)CC3)cccc2c1 (stereo partly drawn) [Compound 6, N—((S)-1-methoxypropan-2-yl)-8-(4-(trifluoromethyl)cyclohex-1-en-1-yl)quinoline-3-carboxamide]	< 0.2	< 0.2	> 1	> 1	–	–	–	–	–
C[C@H](CO)NC(=O)c1ccc2c(Oc3ccc(C(F)(F)F)cc3)cccc2c1 [VT3989]	–	–	–	–	–	–	–	–	interaction with TEAD isoforms, in words (TEAD1; [5]): primarily interacts with TEAD1-3; TEAD1 ΔTm (TEAD1; [6]): 11.6 °C; TEAD2 ΔTm (TEAD2): 8.8 °C; TEAD3 ΔTm (TEAD3): 8.5 °C; binding to TEAD4, in words (TEAD4; [5]): lower levels of binding to TEAD4; TEAD4 ΔTm (TEAD4; [6]): 4.6 °C
CC(C)NC(=O)c1cnc2c(C3=CCC(C(F)(F)F)CC3)cccc2c1 (centres unmarked) [Compound 1, N-isopropyl-8-(4-(trifluoromethyl)cyclohex-1-en-1-yl)quinoline-3-carboxamide]	< 0.2	< 0.2	> 1	> 1	–	–	–	–	EC50 [3]: < 0.2 µM

Continued, in another order:

IC50 (NCI-H226 cells [1]; Homo sapiens, NCI-H226, 144 h) [µM]	IC50 (NCI-H226 cells [2]; Homo sapiens, NCI-H226, 144 h) [µM]	IC50 (NCI-H28 cells; Homo sapiens, NCI-H28, 144 h) [µM]	IC50 (NCI-H23 cells; [4]) [µM]	IC50 (NCI-H226 cells [1]) [µM]	IC50 (NCI-H23 cells; H23-non-responder cell line) [µM]	IC50 (NCI-H226 cells [2]) [µM]	IC50 (NCI-H28 cells) [µM]	SMILES	also measured
–	–	–	–	0.2 to 1	> 1	0.2 to 1	> 1	C[C@H](NC(=O)c1cnc2c(C3=CC[C@@H](C(F)(F)F)CC3)cccc2c1)c1ncco1 (single isomer, unassigned) [Compound 21, N-(1-(oxazol-2-yl)ethyl)-8-(4-(trifluoromethyl)cyclohex-1-en-1-yl)quinoline-3-carboxamide]	–
–	–	–	–	< 0.2	> 1	0.2 to 1	> 1	C[C@H](NC(=O)c1cnc2c(C3=CC[C@@H](C(F)(F)F)CC3)cccc2c1)c1ncco1 (single isomer, unassigned) [Compound 22, N-(1-(oxazol-2-yl)ethyl)-8-(4-(trifluoromethyl)cyclohex-1-en-1-yl)quinoline-3-carboxamide]	–

— US20250223306A1, “TEAD INHIBITORS AND METHODS OF USE” (Sporos BioDiscovery, Inc., priority 2022, published 2025)
